Measured values reported in ChEMBL document CHEMBL1201862, “PubChem BioAssay data set” (2004).
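Each compound was tested at five concentrations against cells in 96-well plates for 48 hours. Here, GI50 denotes the concentration required for 50% inhibition of growth.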 Active and inactive are the calls of the source. Cut-off read from the data, not from the text of the source: active = GI50 up to about 1.1 µM and inactive = higher.

Assays:
Test in all cases: NCI anticancer screen, dose series, 48 h
[1] = test system: HCC 2998
[2] = test system: SF-539
[3] = test system: K562
[4] = test system: SK-MEL-5
[5] = test system: PC-3
[6] = test system: MDA-N
[7] = test system: UACC-257
[8] = test system: SW-620
[9] = test system: MDA-MB-231
[10] = test system: OVCAR-5
[11] = test system: DU-145
[12] = test system: MCF7
[13] = test system: COLO 205
[14] = test system: U-251
[15] = test system: SNB-19
[16] = test system: SNB-75
[17] = test system: NCI-H522
[18] = test system: NCI-H23
[19] = test system: SF-295
[20] = test system: RXF 393
[21] = test system: M14
[22] = test system: ACHN
[23] = test system: 786-0
[24] = test system: OVCAR-4
[25] = test system: MDA-MB-435
[26] = test system: HCT-15
[27] = test system: OVCAR-3
[28] = test system: HCT-116
[29] = test system: SK-OV-3
[30] = test system: HOP-62
[31] = test system: NCI-H460
[32] = test system: TK-10
[33] = test system: Hs-578T
[34] = test system: UO-31
[35] = test system: BT-549
[36] = test system: SK-MEL-28
[37] = test system: RPMI-8226
[38] = test system: IGROV-1
[39] = test system: SN12C
[40] = test system: SK-MEL-2
[41] = test system: MOLT-4
[42] = test system: KM12
[43] = test system: CAKI-1
[44] = test system: Malme-3M
[45] = test system: HL-60
[46] = test system: T47D
[47] = test system: NCI/ADR-RES
[48] = test system: NCI-H226
[49] = test system: LOX IMVI
[50] = test system: UACC-62
[51] = test system: SF-268
[52] = test system: A549
[53] = test system: CCRF-CEM
[54] = test system: HT-29
[55] = test system: EKVX
[56] = test system: OVCAR-8
[57] = test system: A498
[58] = test system: SR

In the case of `O=[N+]([O-])c1ccc(N2N=C(c3ccc4ccccc4c3O)CC2c2ccc(Cl)cc2Cl)c([N+](=O)[O-])c1` (centres undefined), the GI50 [1] was 30.3 µM (inactive), the GI50 [2] was 25.6 µM (inactive) and the GI50 [3] was 15.4 µM (inactive). The GI50 [4] was 29.1 µM (inactive), the GI50 [5] was 35.1 µM (inactive) and the GI50 [6] was 40.9 µM (inactive). The GI50 [7] was 48.9 µM (inactive), the GI50 [8] was 37.5 µM (inactive) and the GI50 [9] was 30.9 µM (inactive). The GI50 [10] was 37.2 µM (inactive), the GI50 [11] was 55.5 µM (inactive) and the GI50 [12] was 40.9 µM (inactive). For the same compound, the GI50 [13] was 44.7 µM (inactive), the GI50 [14] was 28 µM (inactive) and the GI50 [15] was 29.3 µM (inactive). For the same compound, the GI50 [16] was 92.7 µM (inactive), the GI50 [17] was 28 µM (inactive) and the GI50 [18] was 24.7 µM (inactive). The GI50 [19] was 24.3 µM (inactive), the GI50 [20] was 25.4 µM (inactive) and the GI50 [21] was > 10 µM (inactive). The GI50 [22] was 25.2 µM (inactive), the GI50 [23] was 28.2 µM (inactive) and the GI50 [24] was 41.7 µM (inactive). The GI50 [25] was 29.5 µM (inactive), the GI50 [26] was 27.2 µM and the GI50 [27] was 33.7 µM (inactive). For the same compound, the GI50 [28] was 23.6 µM (inactive), the GI50 [29] was 47.8 µM (inactive) and the GI50 [30] was 38.1 µM (inactive). The GI50 [31] was 51.1 µM (inactive), the GI50 [32] was 63 µM (inactive) and the GI50 [33] was 27.9 µM (inactive). The GI50 [34] was 18.7 µM (inactive), the GI50 [35] was 49.1 µM (inactive) and the GI50 [36] was 65.8 µM (inactive). For the same compound, the GI50 [37] was 18.8 µM (inactive), the GI50 [38] was 23.3 µM (inactive) and the GI50 [39] was 71 µM (inactive). The GI50 [40] was 30.3 µM (inactive), the GI50 [41] was 14.9 µM (inactive) and the GI50 [42] was 29 µM (inactive). For the same compound, the GI50 [43] was 54.6 µM (inactive), the GI50 [44] was 32.2 µM (inactive) and the GI50 [45] was 7.59 µM (inactive). The GI50 [46] was 27.7 µM (inactive), the GI50 [47] was 28.6 µM (inactive) and the GI50 [48] was 49.1 µM (inactive). The GI50 [49] was 41.5 µM (inactive), the GI50 [50] was 26.7 µM (inactive) and the GI50 [51] was 53.1 µM (inactive). For the same compound, the GI50 [52] was 28.5 µM (inactive), the GI50 [53] was 12.9 µM (inactive) and the GI50 [54] was 40.1 µM (inactive). For the same compound, the GI50 [55] was 37.3 µM (inactive) and the GI50 [56] was 33.3 µM (inactive).

`COc1ccc2c(N=[N+]=[N-])c(-c3ccccc3)c(=O)oc2c1` was tested, and the GI50 [1] was 92.3 µM (inactive), the GI50 [2] was > 100 µM (inactive) and the GI50 [3] was 40 µM (inactive). The GI50 [4] was 25.5 µM (inactive), the GI50 [5] was 52.7 µM (inactive) and the GI50 [6] was 48.8 µM (inactive). For the same compound, the GI50 [7] was 29.6 µM (inactive), the GI50 [8] was > 100 µM (inactive) and the GI50 [9] was 87.1 µM (inactive). For the same compound, the GI50 [11] was 65.6 µM (inactive), the GI50 [12] was 36.2 µM (inactive) and the GI50 [57] was 45.9 µM (inactive). For the same compound, the GI50 [13] was 56.8 µM (inactive), the GI50 [16] was > 100 µM (inactive) and the GI50 [17] was 26.1 µM (inactive). For the same compound, the GI50 [18] was 24.5 µM (inactive), the GI50 [19] was 61.9 µM (inactive) and the GI50 [21] was 57 µM (inactive). The GI50 [22] was 41.1 µM (inactive), the GI50 [23] was > 100 µM (inactive) and the GI50 [25] was 45.8 µM (inactive). The GI50 [26] was 56.6 µM, the GI50 [28] was 44.3 µM (inactive) and the GI50 [29] was 76.6 µM (inactive). The GI50 [30] was > 100 µM (inactive), the GI50 [31] was 49.3 µM (inactive) and the GI50 [32] was 87.5 µM (inactive). The GI50 [33] was > 100 µM (inactive), the GI50 [35] was 31.4 µM (inactive) and the GI50 [36] was > 100 µM (inactive). For the same compound, the GI50 [37] was 20.8 µM (inactive), the GI50 [38] was > 100 µM (inactive) and the GI50 [39] was 61.1 µM (inactive). For the same compound, the GI50 [41] was 21.5 µM (inactive), the GI50 [42] was 34.5 µM (inactive) and the GI50 [43] was 30.1 µM (inactive). The GI50 [44] was 33.3 µM (inactive), the GI50 [45] was 22.5 µM (inactive) and the GI50 [46] was 22.8 µM (inactive). For the same compound, the GI50 [58] was 22.2 µM (inactive), the GI50 [49] was 82.8 µM (inactive) and the GI50 [50] was 58.6 µM (inactive). The GI50 [51] was 78.5 µM (inactive), the GI50 [52] was 48.4 µM (inactive) and the GI50 [53] was 36.1 µM (inactive). For the same compound, the GI50 [54] was 32.1 µM (inactive), the GI50 [55] was 39.8 µM (inactive) and the GI50 [56] was 77.1 µM (inactive).
